The source of these data is US12673946B2, “Pyrimidin-4(3H)-one derivatives as TRPV4 antagonists” (RaQualia Pharma Inc., priority 2020, dated 2026).

The target in this experiment is T1, human TRPV4 (Homo sapiens, UniProt Q9HBA0).
T1 construct: host or cells: tetracycline-inducible Flp-In T-REx 293 cells
Briefly: Hypotonicity-induced Ca2+ influx (Fluo-4, FDSS). In kind it is cell-based. The method, boiled down: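 Flp-In T-REx 293 cells with tetracycline-induced human TRPV4, loaded with Fluo-4 for 60 min at 25 °C. Compound added 5 min before hypotonic mannitol/CaCl2 solution. Ca2+ signal recorded for 4.5 min on FDSS.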

The mark [1] stands for this setting: Flp-In T-REx 293 cells expressing human TRPV4, examples listed under heading 'Human IC50<50 nM'.
Setting [2] is: Flp-In T-REx 293 cells stably expressing human TRPV4, compounds listed by potency bin (<10 nM Tables 96-1/96-2, <3 nM Table 97).

Each structure is given as a SMILES string. A value given as a limit tells only on which side of the number the result lay.

T1 sequence (Q9HBA0 whole entry): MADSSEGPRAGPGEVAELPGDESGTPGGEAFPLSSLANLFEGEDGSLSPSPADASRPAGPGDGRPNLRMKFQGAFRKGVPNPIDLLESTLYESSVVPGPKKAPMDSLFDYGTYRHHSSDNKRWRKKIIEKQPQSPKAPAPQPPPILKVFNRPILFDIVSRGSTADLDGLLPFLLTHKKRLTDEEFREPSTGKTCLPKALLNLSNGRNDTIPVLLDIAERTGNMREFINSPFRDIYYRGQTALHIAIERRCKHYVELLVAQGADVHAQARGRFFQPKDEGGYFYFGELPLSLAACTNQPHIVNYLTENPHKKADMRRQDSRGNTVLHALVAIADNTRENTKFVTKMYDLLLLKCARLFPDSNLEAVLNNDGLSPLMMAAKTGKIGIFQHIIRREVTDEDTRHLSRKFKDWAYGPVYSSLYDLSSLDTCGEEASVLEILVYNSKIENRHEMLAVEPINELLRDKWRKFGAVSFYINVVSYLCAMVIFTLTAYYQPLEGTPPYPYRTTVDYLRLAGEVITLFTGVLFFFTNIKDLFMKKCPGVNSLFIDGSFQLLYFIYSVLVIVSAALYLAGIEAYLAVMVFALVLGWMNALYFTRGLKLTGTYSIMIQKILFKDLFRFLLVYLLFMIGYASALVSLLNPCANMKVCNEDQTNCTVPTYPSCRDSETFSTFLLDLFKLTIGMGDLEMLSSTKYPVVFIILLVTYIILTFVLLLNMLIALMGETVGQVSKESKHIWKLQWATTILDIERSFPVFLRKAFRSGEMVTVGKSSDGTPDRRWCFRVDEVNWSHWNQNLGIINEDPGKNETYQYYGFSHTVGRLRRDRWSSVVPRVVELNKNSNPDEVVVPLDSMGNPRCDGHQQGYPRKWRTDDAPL

By IC50 is commonly meant the concentration needed to halve the response being measured. A low value points to greater potency in that assay. As for `CC(C)c1cccc(C2(c3nc4c(c(=O)[nH]3)CN(C(=O)[C@H](O)c3cccc(-c5cccc(C(F)(F)F)c5)c3)CCC4)CC2)c1` [51-2], the IC50 by setting is: under setting [1], below 0.05 µM; under setting [2], below 0.01 µM.
For `CC(C)c1cccc(C2(c3nc4c(c(=O)[nH]3)CN(C(=O)[C@H](O)c3cccc(-c5cccc(OC(F)(F)F)c5)c3)CCC4)CC2)c1` [51-3], the IC50 reads like this: under setting [1], below 0.05 µM; under setting [2], below 0.01 µM.
Regarding `CC(C)c1cccc(C2(c3nc4c(c(=O)[nH]3)CN(C(=O)[C@H](O)c3cccc(-c5cccc(Cl)c5)c3)CCC4)CC2)c1` [51-4], the IC50 under setting [1] is below 0.05 µM and the IC50 under setting [2] was below 0.01 µM.
For `CC(C)c1cccc(C2(c3nc4c(c(=O)[nH]3)CN(C(=O)[C@H](O)c3cccc(-c5cccc(C(C)(C)C)c5)c3)CCC4)CC2)c1` [51-5], the IC50 is below 0.05 µM under setting [1] and below 0.01 µM under setting [2].
Turning to `CC(C)c1cccc(C2(c3nc4c(c(=O)[nH]3)CN(C(=O)[C@H](O)c3cccc(-c5ccnc(C(F)(F)F)c5)c3)CCC4)CC2)c1` [51-6], the IC50 was below 0.05 µM under setting [1] and below 0.003 µM under setting [2].
On the same counts, the results for `CC(C)c1cccc(C2(c3nc4c(c(=O)[nH]3)CN(C(=O)[C@H](O)c3cccc(C5=CCCC5)c3)CCC4)CC2)c1` [51-7] are below 0.05 µM and below 0.003 µM.
Consider `CC(C)c1cccc(C2(c3nc4c(c(=O)[nH]3)CN(C(=O)[C@H](O)c3cccc(-c5cccc(F)c5)c3)CCC4)CC2)c1` [51-8], for which the IC50 reads like this: under setting [1], below 0.05 µM; under setting [2], below 0.01 µM.
The corresponding values for `O=C([C@H](O)c1cccc(-c2cccc(F)c2)c1)N1CCCc2nc(C3(c4cccc(C5CCCCC5)c4)CC3)[nH]c(=O)c2C1` [52-1] are below 0.05 µM and below 0.01 µM.
Turning to `O=C([C@H](O)c1cccc(-c2cccc(C(F)(F)F)c2)c1)N1CCCc2nc(C3(c4cccc(C5CCCCC5)c4)CC3)[nH]c(=O)c2C1` [52-2], the IC50 was below 0.05 µM under setting [1] and below 0.01 µM under setting [2].
With `O=C([C@H](O)c1cccc(-c2cccc(Cl)c2)c1)N1CCCc2nc(C3(c4cccc(C5CCCCC5)c4)CC3)[nH]c(=O)c2C1` [52-3], the IC50 was below 0.05 µM under setting [1] and below 0.003 µM under setting [2].
For `O=C([C@H](O)c1cccc(-c2cccc(OC(F)(F)F)c2)c1)N1CCCc2nc(C3(c4cccc(C5CCCCC5)c4)CC3)[nH]c(=O)c2C1` [52-4], the IC50 under setting [1] is below 0.05 µM and the concentration for half-maximal inhibition (IC50) under setting [2] was below 0.01 µM.
The corresponding values for `CC(C)(C)c1cccc(-c2cccc([C@@H](O)C(=O)N3CCCc4nc(C5(c6cccc(C7CCCCC7)c6)CC5)[nH]c(=O)c4C3)c2)c1` [52-5] are below 0.05 µM and below 0.01 µM.
Regarding `O=C([C@H](O)c1cccc(-c2csc3ccccc23)c1)N1CCCc2nc(C3(c4cccc(C5CCCCC5)c4)CC3)[nH]c(=O)c2C1` [52-6], the IC50 is below 0.05 µM under setting [1] and below 0.01 µM under setting [2].
On the same counts, the results for `O=C([C@H](O)c1cccc(-c2coc3ccccc23)c1)N1CCCc2nc(C3(c4cccc(C5CCCCC5)c4)CC3)[nH]c(=O)c2C1` [52-7] are below 0.05 µM and below 0.01 µM.
For the molecule `O=C([C@H](O)c1cccc(-c2cccc(C(F)(F)F)c2)c1)N1CCCc2nc(C3(c4cccc(Oc5ccccc5)c4)CC3)[nH]c(=O)c2C1` [52-8], the IC50 reads like this: under setting [1], below 0.05 µM; under setting [2], below 0.01 µM.
The corresponding values for `O=C([C@H](O)c1cccc(-c2cccc(C(F)(F)F)c2)c1)N1CCCc2nc(C3(c4cccc(-c5csc6ccccc56)c4)CC3)[nH]c(=O)c2C1` [52-9] are below 0.05 µM and below 0.01 µM.
For the molecule `O=C([C@H](O)c1cccc(-c2cccc(OC(F)(F)F)c2)c1)N1CCCc2nc(C3(c4cccc(-c5csc6ccccc56)c4)CC3)[nH]c(=O)c2C1` [52-10], the IC50 reads like this: under setting [1], below 0.05 µM; under setting [2], below 0.01 µM.
For `O=C([C@H](O)c1cccc(-c2cccc(Cl)c2)c1)N1CCCc2nc(C3(c4cccc(-c5csc6ccccc56)c4)CC3)[nH]c(=O)c2C1` [52-11], the IC50 reads like this: under setting [1], below 0.05 µM; under setting [2], below 0.01 µM.
The molecule `CC(C)(C)c1cccc(-c2cccc([C@@H](O)C(=O)N3CCCc4nc(C5(c6cccc(-c7csc8ccccc78)c6)CC5)[nH]c(=O)c4C3)c2)c1` [52-12] had an IC50 under setting [1] below 0.05 µM and an IC50 under setting [2] below 0.01 µM.
The corresponding values for `CC(C)c1cccc(-c2cccc([C@@H](O)C(=O)N3CCCc4nc(C5(c6cccc(-c7csc8ccccc78)c6)CC5)[nH]c(=O)c4C3)c2)c1` [52-13] are below 0.05 µM and below 0.01 µM.
On the same counts, the results for `O=C([C@H](O)c1cccc(-c2cc(F)cc(Cl)c2)c1)N1CCCc2nc(C3(c4cccc(-c5csc6ccccc56)c4)CC3)[nH]c(=O)c2C1` [52-14] are below 0.05 µM and below 0.01 µM.
For the molecule `O=C([C@H](O)c1cccc(-c2cccc(C3CC3)c2)c1)N1CCCc2nc(C3(c4cccc(-c5csc6ccccc56)c4)CC3)[nH]c(=O)c2C1` [52-15], the IC50 by setting is: under setting [1], below 0.05 µM; under setting [2], below 0.01 µM.
As to `O=C([C@H](O)c1cccc(-c2cccc(C(F)(F)F)c2)c1)N1CCCc2nc(C3(c4cccs4)CC3)[nH]c(=O)c2C1` [53-1], the IC50 is, setting by setting: under setting [1], below 0.05 µM; under setting [2], below 0.01 µM.
With `O=C([C@H](O)c1cccc(-c2cccc(OC(F)(F)F)c2)c1)N1CCCc2nc(C3(c4cccs4)CC3)[nH]c(=O)c2C1` [53-2], the IC50 is, setting by setting: under setting [1], below 0.05 µM; under setting [2], below 0.003 µM.
With `CC(C)c1cccc(-c2cccc([C@@H](O)C(=O)N3CCCc4nc(C5(c6cccs6)CC5)[nH]c(=O)c4C3)c2)c1` [53-3], the IC50 is below 0.05 µM under setting [1] and below 0.01 µM under setting [2].
Consider `CC(C)(C)c1cccc(-c2cccc([C@@H](O)C(=O)N3CCCc4nc(C5(c6cccs6)CC5)[nH]c(=O)c4C3)c2)c1` [53-4], for which the IC50 is below 0.05 µM under setting [1] and below 0.01 µM under setting [2].
As to `O=C([C@H](O)c1cccc(-c2cccc(F)c2)c1)N1CCCc2nc(C3(c4cccs4)CC3)[nH]c(=O)c2C1` [53-5], the IC50 is, setting by setting: under setting [1], below 0.05 µM; under setting [2], below 0.01 µM.
In the case of `O=C([C@H](O)c1cccc(-c2cccc(C3CC3)c2)c1)N1CCCc2nc(C3(c4cccs4)CC3)[nH]c(=O)c2C1` [53-6], the IC50 was below 0.05 µM under setting [1] and below 0.003 µM under setting [2].
Turning to `CC(C)c1csc(C2(c3nc4c(c(=O)[nH]3)CN(C(=O)[C@H](O)c3cccc(-c5cccc(C(C)(C)C)c5)c3)CCC4)CC2)c1` [54-1], the IC50 is below 0.05 µM under setting [1] and below 0.003 µM under setting [2].
The corresponding values for `CC(C)c1csc(C2(c3nc4c(c(=O)[nH]3)CN(C(=O)[C@H](O)c3cccc(-c5cccc(OC(F)(F)F)c5)c3)CCC4)CC2)c1` [54-2] are below 0.05 µM and below 0.01 µM.
As to `CC(C)c1csc(C2(c3nc4c(c(=O)[nH]3)CN(C(=O)[C@H](O)c3cccc(-c5cccc(Cl)c5)c3)CCC4)CC2)c1` [54-3], the IC50 reads like this: under setting [1], below 0.05 µM; under setting [2], below 0.01 µM.
On to `CC(C)c1csc(C2(c3nc4c(c(=O)[nH]3)CN(C(=O)[C@H](O)c3cccc(-c5cccc(C(F)(F)F)c5)c3)CCC4)CC2)c1` [54-4], for which the IC50 was below 0.05 µM under setting [1] and below 0.01 µM under setting [2].
As for `CC(C)c1csc(C2(c3nc4c(c(=O)[nH]3)CN(C(=O)[C@H](O)c3cccc(-c5cccc(F)c5)c3)CCC4)CC2)c1` [54-5], the IC50 is below 0.05 µM under setting [1] and below 0.003 µM under setting [2].
On the same counts, the results for `CC(C)c1csc(C2(c3nc4c(c(=O)[nH]3)CN(C(=O)[C@H](O)c3cccc(-c5ccnc(C(F)(F)F)c5)c3)CCC4)CC2)c1` [54-6] are below 0.05 µM and below 0.003 µM.
